Measured values as given in BigSolDB 2.1.

SMILES: CC1(C)CO[P+]([O-])(Oc2c(Br)cc(Br)cc2Br)OC1
- solubility (mole fraction) (in THF, 293.15 K): 0.024
- solubility (mole fraction) (in THF, 298.15 K): 0.0258
- solubility (mole fraction) (in THF, 303.15 K): 0.0303
- solubility (mole fraction) (in THF, 308.15 K): 0.0329
- solubility (mole fraction) (in THF, 313.15 K): 0.0374
- solubility (mole fraction) (in THF, 318.15 K): 0.0409
- solubility (mole fraction) (in THF, 323.15 K): 0.0448
- solubility (mole fraction) (in acetone, 293.15 K): 0.0131
- solubility (mole fraction) (in acetone, 298.15 K): 0.0153
- solubility (mole fraction) (in acetone, 303.15 K): 0.0171
- solubility (mole fraction) (in acetone, 308.15 K): 0.0194
- solubility (mole fraction) (in acetone, 313.15 K): 0.0226
- solubility (mole fraction) (in acetone, 318.15 K): 0.0254
- solubility (mole fraction) (in acetone, 323.15 K): 0.0295
- solubility (mole fraction) (in acetonitrile, 293.15 K): 0.00399
- solubility (mole fraction) (in acetonitrile, 298.15 K): 0.00504
- solubility (mole fraction) (in acetonitrile, 308.15 K): 0.00755
- solubility (mole fraction) (in acetonitrile, 313.15 K): 0.00936
- solubility (mole fraction) (in acetonitrile, 323.15 K): 0.0128
- solubility (mole fraction) (in acetonitrile, 333.15 K): 0.0184
- solubility (mole fraction) (in acetonitrile, 343.15 K): 0.0265
- solubility (mole fraction) (in chloroform, 288.15 K): 0.0801
- solubility (mole fraction) (in chloroform, 293.15 K): 0.0844
- solubility (mole fraction) (in chloroform, 298.15 K): 0.0882
- solubility (mole fraction) (in chloroform, 303.15 K): 0.0947
- solubility (mole fraction) (in chloroform, 308.15 K): 0.1
- solubility (mole fraction) (in chloroform, 313.15 K): 0.106
- solubility (mole fraction) (in chloroform, 318.15 K): 0.113
- solubility (mole fraction) (in chloroform, 328.15 K): 0.124
- solubility (mole fraction) (in dichloromethane, 288.15 K): 0.0492
- solubility (mole fraction) (in dichloromethane, 293.15 K): 0.0546
- solubility (mole fraction) (in dichloromethane, 298.15 K): 0.0594
- solubility (mole fraction) (in dichloromethane, 303.15 K): 0.0653
- solubility (mole fraction) (in dichloromethane, 308.15 K): 0.0712
- solubility (mole fraction) (in ethanol, 293.15 K): 0.0025
- solubility (mole fraction) (in ethanol, 298.15 K): 0.00298
- solubility (mole fraction) (in ethanol, 303.15 K): 0.00358
- solubility (mole fraction) (in ethanol, 308.15 K): 0.00414
- solubility (mole fraction) (in ethanol, 313.15 K): 0.00465
- solubility (mole fraction) (in ethanol, 318.15 K): 0.00556
- solubility (mole fraction) (in ethanol, 323.15 K): 0.00643
- solubility (mole fraction) (in ethanol, 333.15 K): 0.00795
- solubility (mole fraction) (in ethyl acetate, 293.15 K): 0.00497
- solubility (mole fraction) (in ethyl acetate, 298.15 K): 0.00564
- solubility (mole fraction) (in ethyl acetate, 308.15 K): 0.00748
- solubility (mole fraction) (in ethyl acetate, 313.15 K): 0.00853
- solubility (mole fraction) (in ethyl acetate, 318.15 K): 0.00951
- solubility (mole fraction) (in ethyl acetate, 323.15 K): 0.0111
- solubility (mole fraction) (in ethyl acetate, 328.15 K): 0.0127
- solubility (mole fraction) (in ethyl acetate, 333.15 K): 0.0143
- solubility (mole fraction) (in methanol, 293.15 K): 0.00195
- solubility (mole fraction) (in methanol, 298.15 K): 0.0024
- solubility (mole fraction) (in methanol, 303.15 K): 0.00296
- solubility (mole fraction) (in methanol, 308.15 K): 0.00354
- solubility (mole fraction) (in methanol, 313.15 K): 0.00424
- solubility (mole fraction) (in methanol, 323.15 K): 0.00614
- solubility (mole fraction) (in methanol, 333.15 K): 0.0081
- solubility (mole fraction) (in methyl acetate, 288.15 K): 0.0053
- solubility (mole fraction) (in methyl acetate, 293.15 K): 0.00649
- solubility (mole fraction) (in methyl acetate, 298.15 K): 0.00765
- solubility (mole fraction) (in methyl acetate, 303.15 K): 0.00867
- solubility (mole fraction) (in methyl acetate, 308.15 K): 0.0107
- solubility (mole fraction) (in methyl acetate, 313.15 K): 0.0119
- solubility (mole fraction) (in methyl acetate, 318.15 K): 0.0138
- solubility (mole fraction) (in methyl acetate, 323.15 K): 0.0163
- solubility (mole fraction) (in toluene, 293.15 K): 0.00784
- solubility (mole fraction) (in toluene, 298.15 K): 0.009
- solubility (mole fraction) (in toluene, 303.15 K): 0.0103
- solubility (mole fraction) (in toluene, 313.15 K): 0.0145
- solubility (mole fraction) (in toluene, 323.15 K): 0.0195
- solubility (mole fraction) (in toluene, 333.15 K): 0.0268
- solubility (mole fraction) (in toluene, 343.15 K): 0.0349
